“And” between values parts separate entries of the source, which are not always exact repeats. Equal values may be shown once. Square brackets hold non-standard residues; d marks the D form. Peptide text beside a SMILES is read from it. Nle = CCCC[C@H](N)C(=O)O
Assays:
proteasome = details: below 50 μM primarily an inhibitor of calpain; cited from earlier work
U87 cells = test: Apoptosis by annexin V-FITC staining, flow cytometry; type: cell-based
Method: P53 was administered to the cells by the use of the replication defective adenoviral vector ACN53 described in Wills, et al., supra. The effect of varying concentrations of rAd-p53 (from 1×10^9 to 2×10^9 rAd-p53 particles/ml of solution) was investigated in combination with CI-1 in a range of 5–20 μm. The effects of individual and combination treatment was determined in the in DLD1, RKO, HLF and SK-Hep1 cells was investigated in substantial accordance with the teaching of Examples 2 and 3 herein. […] The results are presented in graphical format in FIG. 3 of the attached drawings. In brief, the results were as follows:
The effect of an inhibitor of μ-calpains, CI-1 (N-acetyl-leu-leu-norleucinal), was investigated for its ability to enhance p53 mediated apoptosis in tumor cell lines having p53+ and p53− status listed in Table1. […] To detect a G0/G1 block, bromodeoxyuridine (BrdU) incorporation followed by flow cytometric analysis was done 17 hours post-treatment as described in Example 4 herein. […] The results of these experiments are presented in FIGS. 1 and 2 of the attached drawings. In FIG. 1, each point on the graph represents percentage annexin V positive after background percentage (DMF alone) was subtracted.
An aliquot containing approximately 1×10^6 cells of each type was placed in a T-225 flask. The effect of varying concentrations of rAd-p53 (from 1×10^7 to 2×10^9ACN53 particles/ml of solution) was investigated in combination with CI-1 in a range of 5–20 μM. […]
(§1) Apoptosis was monitored visually by observing blebbed nuclei characteristic of apoptosis, by propidium iodide staining (using propidium iodide commercially available from Molecular Probes, Inc.) followed by flow cytometric analysis to look for subgenomic populations of cells, and by labeling cells with annexin V-FITC (commercially available from Boehringer Mannheim) in substantial accordance with the instructions provided by the manufacturer, followed by flow cytometric analysis on a FACScan Flow Cytometer (commercially available from Becton Dickinson).

NCI-H596 cells = test: as above; type: cell-based; details: CI-1 treatment; p53 mutated lung cell line
Method: (§2) The effect of an inhibitor of μ-calpains, CI-1 (N-acetyl-leu-leu-norleucinal), was investigated for its ability to enhance p53 mediated apoptosis in tumor cell lines having p53+ and p53− status listed in Table1. Each cell line was treated with 5–50 μM CI-1 for 17–26 hours. To detect a G0/G1 block, bromodeoxyuridine (BrdU) incorporation followed by flow cytometric analysis was done 17 hours post-treatment as described in Example 4 herein. […] The results of these experiments are presented in FIGS. 1 and 2 of the attached drawings. In FIG. 1, each point on the graph represents percentage annexin V positive after background percentage (DMF alone) was subtracted.
(§3) CI-1 was obtained from Boehringer-Mannheim Biochemicals (Indianapolis, Ind.). The CI-1 containing media was prepared as follows. CI-1 was diluted in dimethylformamide (DMF) to a concentration of 33.3 μM/μl. The CI-1 solution in DMF was added to achieve a final concentration in the media of 5 or 10 μM final concentration of CI-1. An equivalent volume of DMF alone was added to the control cells. Calpain inhibitor 2, N-acetyl-leu—leu-methioninal (Boehringer Mannheim) was added to cell lines at 5–50 μM final concentration with or without rAd-p53 for 26 hours.
as §1, with “At a time of 17 (or 26 hours) post infection, the percentage of cells undergoing apoptosis was determined by convential apoptotic markers. Apoptosis” for “Apoptosis”

A549 cells = test: as above; type: cell-based; details: 26 hours post treatment
Method: as §2, §3
as §1, with “At a time of 17 (or 26 hours) post infection, the percentage of cells undergoing apoptosis was determined by convential apoptotic markers. Apoptosis” for “Apoptosis”

Hep3B cells = test: as above; type: cell-based; details: for Percent Annexin V Positive Staining: 26 hours post treatment
Method: as §2, §3
as §1, with “At a time of 17 (or 26 hours) post infection, the percentage of cells undergoing apoptosis was determined by convential apoptotic markers. Apoptosis” for “Apoptosis”

RKO cells = test: as above; type: cell-based; details: for Percent Annexin V Positive Staining: 26 hours post treatment
Method: (§4) P53 was administered to the cells by the use of the replication defective adenoviral vector ACN53 described in Wills, et al., supra. The effect of varying concentrations of rAd-p53 (from […] to 2×10^9 rAd-p53 particles/ml of solution) was investigated in combination with CI-1 in a range of 5–20 μm. The effects of individual and combination treatment was determined in the in DLD1, RKO, HLF and SK-Hep1 cells was investigated in substantial accordance with the teaching of Examples 2 and 3 herein. The percentage of apoptotic cells was determined at 17 hours post treatment (with the exception of U87 cells (24 hours) and HeLa cells (68 hours)) with annexin V positive staining. The results are presented in graphical format in FIG. 3 of the attached drawings. In brief, the results were as follows:
as §2
(§5) An aliquot containing approximately 1×10^6 cells of each type was placed in a T-225 flask. The effect of varying concentrations of rAd-p53 (from 1×10^7 to 2×10^9ACN53 particles/ml of solution) was investigated in combination with CI-1 in a range of 5–20 μM. In each instance, the cell line was infected with 1×10^7–1×10^9 particles/ml of cell culture with the ACN53 using the empty cassette virus (ZZCB) as a control. In each instance, the cells were exposed to the virus for a period of one hour. At the end of this time, the virus was washed off the from the cells and fresh media containing an appropriate concentration of CI-1 was added.
as §3
as §1, with “At a time of 17 (or 26 hours) post infection, the percentage of cells undergoing apoptosis was determined by convential apoptotic markers. Apoptosis” for “Apoptosis”

DLD1 cells = test: as above; type: cell-based; details: for Percent Annexin V Positive Staining: 26 hours post treatment
Method: as §4, §2, §5, §3
as §1, with “At a time of 17 (or 26 hours) post infection, the percentage of cells undergoing apoptosis was determined by convential apoptotic markers. Apoptosis” for “Apoptosis”

SK-Hep1 cells = test: as above; type: cell-based; details: for Percent Annexin V Positive Staining: 26 hours post treatment
Method: as §4, §2, §5, §3
as §1, with “At a time of 17 (or 26 hours) post infection, the percentage of cells undergoing apoptosis was determined by convential apoptotic markers. Apoptosis” for “Apoptosis”

HeLa cells = test: as above; type: cell-based; details: for Percent Annexin V Positive Staining: 44 hours post treatment
Method: as §4, §2, §5, §3
as §1, with “At a time of 17 (or 26 hours) post infection, the percentage of cells undergoing apoptosis was determined by convential apoptotic markers. Apoptosis” for “Apoptosis”

**Q.** With `CCCC[C@@H](C=O)NC(=O)[C@H](CC(C)C)NC(=O)[C@H](CC(C)C)NC(C)=O` [CI-1, N-acetyl-leu-leu-norleucinal] (Ac-Leu-Leu-[Nle]-aldehyde) as the molecule, how does the “concentration above which CI-1 inhibits proteasome function” value (proteasome) read?
**A.** above 50 μM

**Q.** And the “Percentage of Cells Undergoing Apoptosis” value (U87 cells; 10 μM CI-1, 24 hrs)?
**A.** 41%

**Q.** What about the “percentage of apoptotic cells” value (U87 cells; 20 μM CI-1 treatment, increase from 5%) of the same molecule?
**A.** 72%

**Q.** And the “cells annexin V-FITC positive” value (U87 cells; calpain inhibitor 1, 10 μM for 4 days)?
**A.** ~100%

**Q.** And the “increase in the percent of cells annexin V positive in response to treatment” value (NCI-H596 cells)?
**A.** no increase

**Q.** What about the “Percent Annexin V Positive Staining” value (A549 cells; CI-1 10 μM) of the same molecule?
**A.** 6%

**Q.** What about the “Percent Annexin V Positive Staining” value (A549 cells; CI-1 20 μM) of the same molecule?
**A.** 5%

**Q.** And the “Percent Annexin V Positive Staining” value (A549 cells; CI-1 50 μM)?
**A.** 18%

**Q.** And the “Percent Annexin V Positive Staining” value (Hep3B cells; CI-1 20 μM)?
**A.** 36%

**Q.** What about the “Percent Annexin V Positive Staining” value (Hep3B cells; CI-1 50 μM) of the same molecule?
**A.** 32%

**Q.** And the “increase in the percentage of apoptotic cells” value (Hep3B cells; highest concentration of inhibitor (50 μM), p53 null)?
**A.** no increase

**Q.** What about the “Percent Annexin V Positive Staining” value (RKO cells; CI-1 10 μM) of the same molecule?
**A.** 13%

**Q.** What about the “Percent Annexin V Positive Staining” value (RKO cells; CI-1 20 μM) of the same molecule?
**A.** 52% and 33%

**Q.** And the “Percent Annexin V Positive Staining” value (RKO cells; CI-1 50 μM)?
**A.** 57%

**Q.** What about the “Percentage of Cells Undergoing Apoptosis” value (RKO cells; [20 μM] CI-1, 17 hours post treatment) of the same molecule?
**A.** 13%

**Q.** What about the “Percentage of Cells Undergoing Apoptosis” value (DLD1 cells; 10 μM CI-1, 17 hours post treatment) of the same molecule?
**A.** 15%

**Q.** What about the “Percent Annexin V Positive Staining” value (DLD1 cells; CI-1 10 μM) of the same molecule?
**A.** 15%

**Q.** What about the “Percent Annexin V Positive Staining” value (DLD1 cells; CI-1 20 μM) of the same molecule?
**A.** 17%

**Q.** And the “Percent Annexin V Positive Staining” value (DLD1 cells; CI-1 30 μM)?
**A.** 17%

**Q.** And the “Percent Annexin V Positive Staining” value (DLD1 cells; CI-1 50 μM)?
**A.** 18%

**Q.** What about the “Percent Annexin V Positive Staining” value (SK-Hep1 cells; CI-1 10 μM) of the same molecule?
**A.** 32%

**Q.** What about the “Percent Annexin V Positive Staining” value (SK-Hep1 cells; CI-1 20 μM) of the same molecule?
**A.** 66%

**Q.** And the “Percent Annexin V Positive Staining” value (SK-Hep1 cells; CI-1 30 μM)?
**A.** 73%

**Q.** What about the “Percent Annexin V Positive Staining” value (SK-Hep1 cells; CI-1 40 μM) of the same molecule?
**A.** 75%

**Q.** What about the “Percent Annexin V Positive Staining” value (SK-Hep1 cells; CI-1 50 μM) of the same molecule?
**A.** 73%

**Q.** And the “Percentage of Cells Undergoing Apoptosis” value (SK-Hep1 cells; [5 μM] CI-1, 17 hours post treatment)?
**A.** 11%

**Q.** What about the “Percentage of Cells Undergoing Apoptosis” value (HeLa cells; 10 μM CI-1, 68 hours post treatment) of the same molecule?
**A.** 8.3%

**Q.** What about the “Percent Annexin V Positive Staining” value (HeLa cells; CI-1 10 μM) of the same molecule?
**A.** 28%

**Q.** What about the “Percent Annexin V Positive Staining” value (HeLa cells; CI-1 20 μM) of the same molecule?
**A.** 48%

**Q.** And the “Percent Annexin V Positive Staining” value (HeLa cells; CI-1 30 μM)?
**A.** 55%

**Q.** And the “Percent Annexin V Positive Staining” value (HeLa cells; CI-1 40 μM)?
**A.** 67%

**Q.** And the “Percent Annexin V Positive Staining” value (HeLa cells; CI-1 50 μM)?
**A.** 80%

**Q.** And the induction of apoptosis (HeLa cells; higher concentrations of CI-1, HeLa have E6 mediated degradation of p53)?
**A.** induced to apoptosis

Reference: patent publication US7001770B1, “Calpain inhibitors and their applications” (priority 1998, dated 2006)
